Measurements as given in US11007250B2, “Methods and kits for treating pain” (Duke University, priority 2017, dated 2021).

Assays:
melanoma-bearing mice = experiment: Mouse melanoma model: spontaneous pain, von Frey test, CPP; format: in vivo; conditions: for spontaneous pain (licking/flinching) in melanoma-bearing mice: SSG 5 μg i.pl.
[1] = system: lamina 110 neurons in spinal cord slices; experiment: Patch clamp recordings of sEPSCs in spinal cord slices; format: cell-based, mouse; conditions: PD-L1 30 ng/ml, sPD-1 30 ng/ml perfusion; Nivolumab 300 ng/ml, 3 h
[2] = system: T cell, macrophage and inflammatory cytokine marker mRNA; experiment: Quantitative real-time RT-PCR of immune markers in melanoma-bearing hindpaw skin; conditions: 3 h after sPD-1 treatment (5 μg, i.pl.), MCI-4w
[3] = system: small-diameter neurons of whole-mount DRG; experiment: Whole-cell patch clamp recordings in whole mount DRGs ex vivo; format: cell-based, mouse; conditions: WT whole mount DRG; sPD-1 30 ng/ml, Nivolumab 300 ng/ml
Procedure: Whole-cell patch clamp recordings in whole mount DRGs of mice ex vivo. L4-L5 DRGs were carefully removed 4 days after sham surgery or CCI surgery and placed in cold oxygenated ACSF. The connective tissue was gently removed under a microscope and the ganglia were digested with a mixture of 0.4 mg/mL trypsin (Sigma) and 1.0 mg/ml type-A collagenase (Sigma) for 30 min at 37° C. The intact ganglia were then incubated in ACSF oxygenated with 95% O2 and 5% CO2 at 28° C. for at least 1 h before transferring them to the recording chamber. DRG neurons were visualized with a 40× water-immersion objective using a BX51WI microscope (Olympus). Whole-cell current and voltage recordings were acquired with an Axon700B amplifier. Patch pipettes (4-7 MO) were pulled from borosilicate glass capillaries on P-97 puller. The recording chamber (300 μl) was continuously superfused (3-4 ml/min). Series resistance was compensated for (>80%), and leak subtraction was performed. The pipette solution contained (in mM): 140 KCl, 2 MgCl2, 10 Hepes, 2 Mg-ATP, pH 7.4. Osmolarity was adjusted to 290-300 mOsm. Data was acquired with a Digidata 1322A acquisition system (molecular devices) using pCLAMP 9.0 software. Signals were low-pass filtered at 5 kHz, sampled at 10 kHz and analyzed offline.

naive mice = experiment: Basal pain in naive mice (von Frey test, spontaneous pain); format: in vivo, mouse
[4] = system: TREK2 in CHO cells co-expressing PD-1 and TREK2; experiment: Patch clamp recordings in transfected CHO cells; format: cell-based; conditions: SSG
Procedure: CHO cell culture, transfection and electrophysiology. CHO cell line was purchased from Duke Cell Culture Facility. Cells were cultured in high glucose (4.5 g/L) Dulbecco's Modified Eagle's Medium containing 10% (v/v) fetal bovine serum (Gibco). Transfection (1 μg cDNA) was performed with Lipofectamine™ 2000 Reagent (Invitrogen) at 70% confluency and the transfected cells were cultured in the same growth medium for 48 h before electrophysiological and biochemical studies. PD1/PDCD1 cDNA construct (SC117011, NM_005018) and TREK2/KCNK10 cDNA construct (SC110477, NM_021161) were purchased from Origene Technologies.
Whole-cell patch clamp recordings in transfected CHO cells were conducted at room temperature using patch pipettes with resistances of 5-6 MD. The recording chamber was continuously superfused (3-4 ml/min). The data were acquired at a rate of 10 kHz and filtered at 3 kHz using an EPC-10 amplifier (HEKA, Germany). Pipette solution contained (in mM): K-gluconate 126, NaCl 10, MgCl2 1, EGTA 10, NaATP 2, and MgGTP 0.1, adjusted to pH 7.3 with KOH. The external solution was composed of (in mM): NaCl 140, KCl 5, CaCl2 2, MgCl2 1, HEPES 10, glucose 10, adjusted to pH 7.4 with NaOH. […] In current-clamp experiments, the resting membrane potential was measured without any membrane potential compensation.

[5] = system: small-diameter human DRG neurons; experiment: Patch clamp recordings in dissociated human DRG neurons; format: cell-based; conditions: SSG 11 μM
Procedure: Primary cultures and patch clam recordings in human DRG neurons. Non-diseased human DRGs were obtained from donors through NDRI with permission of exemption from Duke IRB. Postmortem L3-L5 DRGs were dissected from 5 male donors at the age of 27, 31, 43, 54, and 67 and delivered in ice-cold culture medium to the laboratory at Duke University within 24-72 hours of death. Upon the delivery, DRGs were rapidly dissected from nerve roots and minced in a calcium-free HBSS (Gibco). Human DRG cultures were prepared as previously reported (Xu, Z Z, et al. 2015). DRGs were digested at 37° C. in humidified O2 incubator for 120 min with collagenase Type II (Worthington, 285 units/mg, 12 mg/ml final concentration) and dispase II (Roche, 1 unit/mg, 20 mg/ml) in PBS with 10 mM HEPES, pH adjusted to 7.4 with NaOH. DRGs were mechanically dissociated using fire-polished pipettes, filtered through a […] nylon mesh and centrifuged (500×g for 5 min). The pellet was resuspended, plated on 0.5 mg/ml poly-D-lysine-coated glass coverslips, and cells were grown in Neurobasal medium supplemented with 10% FBS, 2% B-27 supplement, 1% N-2 supplement, and 1% penicillin/streptomycin. Whole-cell patch clamp recordings in small-diameter DRG neurons (<55 μm) were conducted at room temperature using patch pipettes with resistances of 2-3 MD. […] The resting membrane potential was measured without a current injection.

[6] = system: phosphorylation of SHP-1 (pSHP-1); experiment: pSHP-1 immunostaining in mouse DRG neurons; format: cell-based; conditions: dissociated DRG neurons; PD-L1 10 ng/ml, SSG 11 μM
[7] = system: dissociated small-diameter mouse DRG neurons; experiment: Whole-cell patch clamp recordings in dissociated mouse DRG neurons; format: cell-based; conditions: SSG 11 μM
Procedure: Whole-cell patch clamp recordings in dissociated mouse DRG neuron. DRGs were aseptically removed from 4-7 week-old mice and digested with collagenase (0.2 mg/ml, Roche)/dispase-II (3 mg/ml, Roche) for 120 min. Cells were placed on glass cover slips coated with poly-D-lysine and grown in a neurobasal defined medium (10% fetal bovine serum and 2% B27 supplement) at 37° C. with 5% CO2/95% air for 24 h before experiments. Whole-cell voltage clamp recordings were performed at room temperature to measure transient sodium currents and action potentials, respectively, with an EPC10 amplifier (HEKA) and an Axopatch-200B amplifier with a Digidata 1440A (Axon Instruments) (Xu, Z Z, et al. 2015). The patch pipettes were pulled from borosilicate capillaries (Chase Scientific Glass Inc.). When filled with the pipette solution, the resistance of the pipettes was 4-5 MQ. The recording chamber (300 μl) was continuously superfused (3-4 ml/min). Series resistance was compensated for (>80%), and leak subtraction was performed. Data were low-pass-filtered at 2 KHz, sampled at 10 KHz. The pClamp10 (Axon Instruments) software was used during experiments and analysis. For sodium current recording, pipette solution contained (in mM): CsCl 130, NaCl 9, MgCl2 1, EGTA 10, HEPES 10, adjusted to pH 7.4 with CsOH. […] RMP was measured without a current injection.

mice = experiment: Tail-flick and hot-plate tests of morphine antinociception; format: in vivo, mouse; conditions: morphine 10 mg/kg s.c.
Procedure: Tail-flick test. All animals were habituated to testing environment for at least 2 days before baseline testing. Mice were gently held by a hand with a terry glove and with tails exposed. The distal 3 cm of the tail was immersed into the 50° C. hot water. The tail-flick latency was the time required for a mouse to flick or remove its tail out of the water. A maximum cut-off value of 15 seconds was set to avoid thermal injury. Tail-flick latency was determined both before and after drug injection. Data are expressed as the maximum possible effect (MPE) calculated as MPE (%)=100×[(postdrug response baseline response)/(cutoff response−baseline response)]. The MPE (%) data from each animal were converted to area under the curve (AUC).
Hot-plate test. All animals were habituated to testing environment for at least 2 days before baseline testing. […] A maximum cut-off value of 40 seconds was set to avoid tissue injury. Data are expressed as the maximum possible effect (MPE) calculated as MPE (%)=100×[(postdrug response−baseline response)/(cutoff response−baseline response)]. The MPE (%) data from each animal were converted to area under the curve (AUC).

[8] = MCI-4w, sPD-1 5 μg i.pl., siRNA 2 μg peri-sciatic, Nivolumab 3-10 mg/kg i.v., RMP1-14 10 mg/kg i.v.
[9] = i.pl., sPD-1 5 μg, RMP1-14 5 μg, Nivolumab 10 μg

| Molecule | mechanical allodynia in melanoma-bearing mice (melanoma-bearing mice; [8]) | spontaneous pain (licking/flinching) in melanoma-bearing mice (melanoma-bearing mice; [8]) | conditioned place preference (CPP), ongoing pain (melanoma-bearing mice; i.pl. sPD-1, two-chamber test) | onset of spontaneous pain after injection (melanoma-bearing mice; sPD-1 5 μg i.pl., MCI-4w) | amplitude of spontaneous EPSCs (sEPSCs) [1] | frequency of spontaneous EPSCs (sEPSCs) [1] | mRNA levels of immune/inflammatory markers in hindpaw skin [2] | firing rate of action potentials [3] | duration of mechanical allodynia in naive mice (naive mice; [9]) | mechanical allodynia in naive mice (naive mice; [9]) | spontaneous pain in naive mice (naive mice; sPD-1 5 μg i.pl.) | effect on PD-L1-induced RMP change ([4]; CHO cells co-expressing PD-1 and TREK2) | effect on PD-L1 potentiation of TREK2 currents and Erev shift ([4]; PD-1/TREK2 co-expressing CHO cells) | effect on PD-L1-induced inhibition of sodium currents [5] | effect on analgesic effect of PD-L1 (naive mice; i.pl. SSG plus PD-L1, naive mice) | effect on PD-L1-induced SHP-1 phosphorylation [6] | effect on PD-L1-induced inhibition of sodium currents [7] | analgesic effect of morphine after human IgG (mice; human IgG i.v.) | analgesic effect of morphine in Pd1−/− mice compared to WT (mice) |
| --- | --- | --- | --- | --- | --- | --- | --- | --- | --- | --- | --- | --- | --- | --- | --- | --- | --- | --- | --- |
| sPD-1: soluble PD-1 used to neutralize PD-L1; Mouse PD-1 from R&D (1021-PD-100) | induced mechanical allodynia | marked spontaneous pain | marked CPP | 10 to 30 min | not amplitude | increased sEPSC frequency | did not alter | increased the firing rate | 3 h | transient mechanical allodynia | without causing spontaneous pain |  |  |  |  |  |  |  |  |
| O.O.O.O.O.O.O.O.O.O=C([O-])[C@@H]1[O][Sb]2([O-])([O][Sb]34([OH])[O][C@H]([C@H](O)CO)[C@H]([O]3)[C@H](C(=O)[O-])[O]4)[O][C@H]([C@H](O)CO)[C@@H]1[O]2.[Na+].[Na+].[Na+] [SSG, sodium stibogluconate] |  | elicited spontaneous pain |  |  |  |  |  |  |  |  |  | blocked | abolished | completely blocked | abolished | blocked | partially blocked |  |  |
| CN1CC[C@]23c4c5ccc(O)c4O[C@H]2[C@@H](O)C=C[C@H]3[C@H]1C5 [morphine] |  |  |  |  |  |  |  |  |  |  |  |  |  |  |  |  |  | typical analgesic effect | reduced analgesic (antinociceptive) effect |
